Test system: yeast genes (expressed mRNA)
Assay: DNA chip measurement of expressed mRNA of yeast genes after culture with a toxic chemical substance
Format: cell-based, Saccharomyces cerevisiae S288C
Details: for level of expressed mRNA in the presence of chemical substance / level in the absence of chemical substance: cultured two hours with the chemical substance; for The level of expressed mRNA in the presence of chemical substance/The level of expressed mRNA in the absence of chemical substance: cultured two hours with substance
Method: Yeast (Saccharomyces cerevisiae S288C (a SUC2mal mel gap2 CUP1)) were cultured at 25° C. on YPD medium (yeast extract 1%, polypeptone 2%, glucose 2%). One of toxic chemical substances was added to the cell at logarithmic growth phase, and the cell was further cultured for two hours. Cell was cultured without any chemical substance in the same condition, and was used as a control. Concentrations of the chemical substances were defined to inhibit the growth of the yeast but not lead to death.
After the completion of cultivation, the culture was centrifuged to collect the cells. To the cells, sodium acetate buffer (50 mM sodium acetate, 10 mM EDTA, 1% SDS) was added, and the mixture was shaken at 65° C. for five minutes, followed by returning to room temperature, and obtaining the supernatant, which procedure was repeated two times. To the supernatant, ½ amount of a solution of phenol/chloroform (1:1) was added, and the mixture was centrifuged to give a supernatant, an equal amount of chloroform was added, and the mixture was centrifuged to give a supernatant. To the supernatant, an equal amount of isopropanol containing 0.3 M sodium acetate was added, and the mixture was allowed to stand at room temperature for 30 minutes, after which the mixture was centrifuged to give sediment of the whole RNAs. Seventy % ethanol was added to the sediment, and the mixture was again centrifuged to give sediment, which was then dried and dissolved in water. mRNA was isolated from the whole RNAs as followings. In view of the fact that a poly A chain is attached to the 3′ terminus of mRNA, a polynucleotide having a poly T structure which was immobilized on the surface of latex beads was used to trap the mRNA, and then the mRNA was washed and eluted with spine column (Oligotex-dT30<Super>mRNA Purification Kit, Takara). Reverse transcription of the mRNA was conducted with a reverse transcriptase (Super Script II Reverse Transcriptase; catalogue No. 18064-014, GibcoBRL) using fluorescence-labeled nucleotides to give cDNAs that were introduced with Cy3-dUTP or Cy5-dUTP during the reverse transcription.
The labeled cDNAs were dissolved in TE buffer (10 mM Tris-HCl/1 mM EDTA, pH 8.0), and the solution was dropped on the DNA chip containing the whole genes of yeast (DNA Chip Research Inc. Japan) so that the cDNAs were hybridized on the DNA chip at 65° C. for over 12 hours. The fluoresces intensity of the DNA chip was read with a scanner, and the ratio relative to the fluorescence intensity resulting from the absence of chemical substance was estimated as the following, which is shown in Tables 1 to 9.
In the Tables, “Intensity” indicated in the rightmost column is a value of the level of expressed mRNA of each gene in control cells as divided by the average level of the expressions of the whole genes. A gene of which mRNA level is lower in control, and is higher in cases of addition of chemical substance, is especially useful in the detection of toxic substances.
Here, when a ratio of an amount of mRNA expressed in the presence of the chemical substance to an amount of mRNA expressed in the absence of the chemical substance is two or more, then it is considered significant.

SMILES: [Cl][Pb][Cl] [(4), PbCl2]
- level of expressed mRNA in the presence of chemical substance / level in the absence of chemical substance (yeast gene YJL097W): 1.6
- The level of expressed mRNA in the presence of chemical substance/The level of expressed mRNA in the absence of chemical substance (yeast gene YJL151C): 1.2
- The level of expressed mRNA in the presence of chemical substance/The level of expressed mRNA in the absence of chemical substance (yeast gene YJL152W): 1.3
- The level of expressed mRNA in the presence of chemical substance/The level of expressed mRNA in the absence of chemical substance (yeast gene YJL161W): 4.6
- The level of expressed mRNA in the presence of chemical substance/The level of expressed mRNA in the absence of chemical substance (yeast gene YJL171C): 1.4
- The level of expressed mRNA in the presence of chemical substance/The level of expressed mRNA in the absence of chemical substance (yeast gene YJR008W): 1.7
- level of expressed mRNA in the presence of chemical substance / level in the absence of chemical substance (yeast gene YJR030C): 1.2
- The level of expressed mRNA in the presence of chemical substance/The level of expressed mRNA in the absence of chemical substance (yeast gene YJR054W): 0.9
- level of expressed mRNA in the presence of chemical substance / level in the absence of chemical substance (yeast gene YKL051W): 0.8
- The level of expressed mRNA in the presence of chemical substance/The level of expressed mRNA in the absence of chemical substance (yeast gene YKL071W): 2.8
- The level of expressed mRNA in the presence of chemical substance/The level of expressed mRNA in the absence of chemical substance (yeast gene YKL086W): 2.6
- level of expressed mRNA in the presence of chemical substance / level in the absence of chemical substance (yeast gene YKL097C): 1.4
- level of expressed mRNA in the presence of chemical substance / level in the absence of chemical substance (yeast gene YKL100C): 1.6
- The level of expressed mRNA in the presence of chemical substance/The level of expressed mRNA in the absence of chemical substance (yeast gene YKL151C): 2.5
- The level of expressed mRNA in the presence of chemical substance/The level of expressed mRNA in the absence of chemical substance (yeast gene YKL153W): 0.7
- The level of expressed mRNA in the presence of chemical substance/The level of expressed mRNA in the absence of chemical substance (yeast gene YKL195W): 1.1
- level of expressed mRNA in the presence of chemical substance / level in the absence of chemical substance (yeast gene YKR040C): 2.9
- The level of expressed mRNA in the presence of chemical substance/The level of expressed mRNA in the absence of chemical substance (yeast gene YKR091W): 3.5
- The level of expressed mRNA in the presence of chemical substance/The level of expressed mRNA in the absence of chemical substance (yeast gene YLR054C): 2.4
- The level of expressed mRNA in the presence of chemical substance/The level of expressed mRNA in the absence of chemical substance (yeast gene YLR149C): 2.3
- The level of expressed mRNA in the presence of chemical substance/The level of expressed mRNA in the absence of chemical substance (yeast gene YLR152C): 0.9
- The level of expressed mRNA in the presence of chemical substance/The level of expressed mRNA in the absence of chemical substance (yeast gene YLR194C): 3.6
- level of expressed mRNA in the presence of chemical substance / level in the absence of chemical substance (yeast gene YLR226W): 1.0
- The level of expressed mRNA in the presence of chemical substance/The level of expressed mRNA in the absence of chemical substance (yeast gene YLR324W): 1.0
- level of expressed mRNA in the presence of chemical substance / level in the absence of chemical substance (yeast gene YLR338W): 1.1
- The level of expressed mRNA in the presence of chemical substance/The level of expressed mRNA in the absence of chemical substance (yeast gene YLR350W): 2.3
- The level of expressed mRNA in the presence of chemical substance/The level of expressed mRNA in the absence of chemical substance (yeast gene YLR387C): 0.6
- level of expressed mRNA in the presence of chemical substance / level in the absence of chemical substance (yeast gene YLR392C): 1.9
- level of expressed mRNA in the presence of chemical substance / level in the absence of chemical substance (yeast gene YLR427W): 0.5
- The level of expressed mRNA in the presence of chemical substance/The level of expressed mRNA in the absence of chemical substance (yeast gene YLR460C): 1.1
- level of expressed mRNA in the presence of chemical substance / level in the absence of chemical substance (yeast gene YML013W): 0.6
- level of expressed mRNA in the presence of chemical substance / level in the absence of chemical substance (yeast gene YML029W): 1.0
- level of expressed mRNA in the presence of chemical substance / level in the absence of chemical substance (yeast gene YML041C): 1.0
- level of expressed mRNA in the presence of chemical substance / level in the absence of chemical substance (yeast gene YML079W): 1.5
- The level of expressed mRNA in the presence of chemical substance/The level of expressed mRNA in the absence of chemical substance (yeast gene YML117W): 1.6
- The level of expressed mRNA in the presence of chemical substance/The level of expressed mRNA in the absence of chemical substance (yeast gene YMR009W): 1.9
- The level of expressed mRNA in the presence of chemical substance/The level of expressed mRNA in the absence of chemical substance (yeast gene YMR067C): 0.4
- level of expressed mRNA in the presence of chemical substance / level in the absence of chemical substance (yeast gene YMR068W): 1.5
- level of expressed mRNA in the presence of chemical substance / level in the absence of chemical substance (yeast gene YMR071C): 1.9
- The level of expressed mRNA in the presence of chemical substance/The level of expressed mRNA in the absence of chemical substance (yeast gene YMR090W): 3.5
- The level of expressed mRNA in the presence of chemical substance/The level of expressed mRNA in the absence of chemical substance (yeast gene YMR095C): 1.0
- The level of expressed mRNA in the presence of chemical substance/The level of expressed mRNA in the absence of chemical substance (yeast gene YMR097C): 1.6
- The level of expressed mRNA in the presence of chemical substance/The level of expressed mRNA in the absence of chemical substance (yeast gene YMR102C): 0.8
- The level of expressed mRNA in the presence of chemical substance/The level of expressed mRNA in the absence of chemical substance (yeast gene YMR107W): 18.4
- level of expressed mRNA in the presence of chemical substance / level in the absence of chemical substance (yeast gene YMR160W): 1.2
- The level of expressed mRNA in the presence of chemical substance/The level of expressed mRNA in the absence of chemical substance (yeast gene YMR180C): 1.3
- The level of expressed mRNA in the presence of chemical substance/The level of expressed mRNA in the absence of chemical substance (yeast gene YMR184W): 1.1
- The level of expressed mRNA in the presence of chemical substance/The level of expressed mRNA in the absence of chemical substance (yeast gene YMR191W): 1.6
- The level of expressed mRNA in the presence of chemical substance/The level of expressed mRNA in the absence of chemical substance (yeast gene YMR295C): 1.6
- The level of expressed mRNA in the presence of chemical substance/The level of expressed mRNA in the absence of chemical substance (yeast gene YMR316W): 1.9
- level of expressed mRNA in the presence of chemical substance / level in the absence of chemical substance (yeast gene YNL026W): 0.8
- The level of expressed mRNA in the presence of chemical substance/The level of expressed mRNA in the absence of chemical substance (yeast gene YNL044W): 1.3

From patent US20100041089A1, “IMPROVED METHOD FOR DETECTING CHEMICAL […]” (priority 2006, published 2010)
